Experimental data: US20160185797A1, “ALKYNYL ALCOHOLS AND METHODS OF USE” (Genentech, Inc., priority 2013, published 2016)
Where two headings read alike, the source gives them in different places.

What was measured:
[1] = target: T1, nuclear factor-kappa B (NF-kB)-inducing kinase (NIK) (Homo sapiens, UniProt Q99558); experiment: NIK enzyme inhibition assay (Transcreener ADP fluorescence polarization, NIK ADP-FP); format: biochemical
T1 construct: made in house; host or cells: baculovirus-infected insect cells
T1 sequence (Q99558 whole entry): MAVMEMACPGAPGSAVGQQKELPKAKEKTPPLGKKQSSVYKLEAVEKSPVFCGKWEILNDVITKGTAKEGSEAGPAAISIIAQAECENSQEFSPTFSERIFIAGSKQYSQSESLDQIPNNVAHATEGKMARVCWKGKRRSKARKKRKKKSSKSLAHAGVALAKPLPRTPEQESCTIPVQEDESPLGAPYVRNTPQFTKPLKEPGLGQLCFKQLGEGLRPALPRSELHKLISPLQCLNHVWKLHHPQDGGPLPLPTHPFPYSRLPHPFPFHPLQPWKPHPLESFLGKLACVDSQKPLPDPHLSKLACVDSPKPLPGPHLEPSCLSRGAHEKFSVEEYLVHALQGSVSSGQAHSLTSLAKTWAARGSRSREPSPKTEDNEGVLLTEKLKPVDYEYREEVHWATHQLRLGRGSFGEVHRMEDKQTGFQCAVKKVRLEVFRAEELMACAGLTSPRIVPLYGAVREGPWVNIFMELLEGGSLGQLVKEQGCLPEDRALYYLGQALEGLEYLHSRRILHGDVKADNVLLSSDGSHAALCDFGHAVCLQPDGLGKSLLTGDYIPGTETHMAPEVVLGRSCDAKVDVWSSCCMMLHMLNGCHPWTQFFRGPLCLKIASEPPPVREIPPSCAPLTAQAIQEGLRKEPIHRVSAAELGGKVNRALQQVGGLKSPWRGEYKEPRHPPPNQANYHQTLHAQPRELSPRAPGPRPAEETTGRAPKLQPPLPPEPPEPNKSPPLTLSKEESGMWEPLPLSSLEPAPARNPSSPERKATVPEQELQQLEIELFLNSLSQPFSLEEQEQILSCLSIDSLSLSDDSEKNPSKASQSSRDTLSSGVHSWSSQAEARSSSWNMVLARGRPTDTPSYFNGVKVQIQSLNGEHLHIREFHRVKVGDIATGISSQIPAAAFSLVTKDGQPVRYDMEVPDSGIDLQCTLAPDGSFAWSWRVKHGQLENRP

[2] = tested on: REL-A (p65) nuclear translocation in HeLa cells; experiment: REL-A (p65) nuclear translocation assay in HeLa cells, TNF-α stimulated (classical NF-kB signaling), high content imaging; format: cell-based; settings: compound 4.5 h, then 10 ng/mL TNF-α for 30 minutes, read-out: REL-A HeLa Transloc Assay (IC50)
Outline: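 HeLa cells in medium with 10% fetal bovine serum were exposed to compounds (0.2% DMSO final) for 4.5 hours, then stimulated with 10 ng/mL TNF-α for 30 minutes. After fixation in 4% paraformaldehyde and permeabilization with 0.1% Triton X-100, cells were stained with 400 ng/mL anti-REL-A (p65) antibody, an Alexa488 secondary and DRAQ5. Opera imaging quantified the nuclear-to-cytoplasmic signal ratio to give IC50.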

[3] = tested on: p52 (NF-kB2) nuclear translocation in HeLa cells; experiment: p52 (NF-kB2) nuclear translocation assay in HeLa cells, anti-lymphotoxin beta receptor antibody stimulated (non-classical NF-kB signaling), high content imaging; format: cell-based; settings: 100 ng/mL anti-lymphotoxin beta receptor antibody for 5 hours, read-out: p52 HeLa Transloc Assay (IC50)
Outline: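 HeLa cells in 10% FBS medium were treated with compound (0.2% DMSO final) and stimulated with 100 ng/mL anti-lymphotoxin beta receptor antibody for 5 h. Fixed cells were immunostained for p52 and imaged with DRAQ5 nuclear stain. Translocation is the nuclear to cytoplasmic intensity ratio, […].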

For `CN1CC[C@@](O)(C#Cc2cccc(-c3cc4c(Cl)c[nH]c4c(C(N)=O)n3)c2)C1=O` [Example 78, 3-chloro-5-[3-[2-[(3R)-3-hydroxy-1-methyl-2-oxo-pyrrolidin-3-yl]ethynyl]phenyl]-1H-pyrrolo[2,3-c]pyridine-7-carboxamide], which Ki [1] is on record?
The Ki was 0.1 nM.

And the IC50 ([2]; Homo sapiens, HeLa)?
The IC50 was 15700 nM.

And the IC50 ([3]; Homo sapiens)?
Its IC50 is 8.3 nM.

`CN1CC[C@@](O)(C#Cc2cccc(-c3nc(C(N)=O)c(NC4COC4)cc3F)c2)C1=O` [Example 79, 5-fluoro-6-[3-[2-[(3R)-3-hydroxy-1-methyl-2-oxo-pyrrolidin-3-yl]ethynyl]phenyl]-3-(oxetan-3-ylamino)pyridine-2-carboxamide] was tested. Which Ki [1] did it give?
The Ki was 0.05 nM.

What about the IC50 ([2]; Homo sapiens, HeLa) of the same compound?
Its IC50 is ≥ 20000 nM.

And the IC50 ([3]; Homo sapiens)?
Its IC50 is 9.86 nM.

`COCCNc1cc(F)c(-c2cccc(C#C[C@]3(O)CCN(C)C3=O)c2)nc1C(N)=O` [Example 80, 5-fluoro-6-[3-[2-[(3R)-3-hydroxy-1-methyl-2-oxo-pyrrolidin-3-yl]ethynyl]phenyl]-3-(2-methoxyethylamino) pyridine-2-carboxamide] was tested. Which Ki [1] did it give?
The Ki was 0.05 nM.

And the IC50 ([2]; Homo sapiens, HeLa)?
The IC50 was ≥ 20000 nM.

What about the IC50 ([3]; Homo sapiens) of the same compound?
Its IC50 is 4.65 nM.

How did the Ki [1] turn out when `CN1CC[C@@](O)(C#Cc2cccc(-c3nc(C(N)=O)c(NC[C@@H]4CCO4)cc3F)c2)C1=O` [Example 81, 5-fluoro-6-[3-[2-[(3R)-3-hydroxy-1-methyl-2-oxo-pyrrolidin-3-yl]ethynyl]phenyl]-3-[[(2S)-oxetan-2-yl]methylamino] pyridine-2-carboxamide] was run?
Its Ki is 0.05 nM.

What about the IC50 ([2]; Homo sapiens, HeLa) of the same compound?
The IC50 was ≥ 2000 nM.

What about the IC50 ([3]; Homo sapiens) of the same compound?
Its IC50 is 50.8 nM.

Which results are given for `CN1CC[C@@](O)(C#Cc2cccc(-c3nc(C(N)=O)c(NC[C@H]4CCO4)cc3F)c2)C1=O` [Example 82, 5-fluoro-6-[3-[2-[(3R)-3-hydroxy-1-methyl-2-oxo-pyrrolidin-3-yl]ethynyl]phenyl]-3-[[(2R)-oxetan-2-yl]methylamino] pyridine-2-carboxamide]?
Ki [1]: 0.33 nM; IC50 ([2]; Homo sapiens, HeLa): ≥ 2000 nM; IC50 ([3]; Homo sapiens): 95.5 nM

What does the source list for `CN1CC[C@@](O)(C#Cc2cccc(-c3nc(C(N)=O)c(NCC(F)(F)F)cc3F)c2)C1=O` [Example 83, 5-fluoro-6-[3-[2-[(3R)-3-hydroxy-1-methyl-2-oxo-pyrrolidin-3-yl]ethynyl]phenyl]-3-(2,2,2-trifluoroethylamino) pyridine-2-carboxamide]?
Ki [1]: 0.15 nM; IC50 ([2]; Homo sapiens, HeLa): 1000 nM; IC50 ([3]; Homo sapiens): 11 nM

For `CN1CC[C@@](O)(C#Cc2ccc(F)c(-c3ccc(N)c(C(N)=O)n3)c2)C1=O` [Example 84, 3-amino-6-[2-fluoro-5-[2-[(3R)-3-hydroxy-1-methyl-2-oxo-pyrrolidin-3-yl]ethynyl]phenyl] pyridine-2-carboxamide], which Ki [1] is on record?
Its Ki is 0.05 nM.

What about the IC50 ([2]; Homo sapiens, HeLa) of the same compound?
The IC50 was 1000 nM.

What about the IC50 ([3]; Homo sapiens) of the same compound?
The IC50 was 14.2 nM.

What does the source list for `CN1CC[C@@](O)(C#Cc2ccc(F)c(-c3ccc(NC4COC4)c(C(N)=O)n3)c2)C1=O` [Example 85, 6-[2-fluoro-5-[2-[(3R)-3-hydroxy-1-methyl-2-oxo-pyrrolidin-3-yl]ethynyl]phenyl]-3-(oxetan-3-ylamino)pyridine-2-carboxamide]?
Ki [1]: 0.05 nM; IC50 ([2]; Homo sapiens, HeLa): 6320 nM; IC50 ([3]; Homo sapiens): 5.88 nM

Which results are given for `COCCNc1ccc(-c2cc(C#C[C@]3(O)CCN(C)C3=O)ccc2F)nc1C(N)=O` [Example 86, 6-[2-fluoro-5-[2-[(3R)-3-hydroxy-1-methyl-2-oxo-pyrrolidin-3-yl]ethynyl]phenyl]-3-(2-methoxyethylamino) pyridine-2-carboxamide]?
Ki [1]: 0.1 nM; IC50 ([2]; Homo sapiens, HeLa): ≥ 20000 nM; IC50 ([3]; Homo sapiens): 6.27 nM

Which Ki [1] does the source give for `CN1CC[C@@](O)(C#Cc2cccc(-c3ncc(NC4CC4)c(C(N)=O)n3)c2)C1=O` [Example 87, 5-(cyclopropylamino)-2-[3-[2-[(3R)-3-hydroxy-1-methyl-2-oxo-pyrrolidin-3-yl]ethynyl]phenyl] pyrimidine-4-carboxamide] here?
The Ki was 0.14 nM.

What about the IC50 ([2]; Homo sapiens, HeLa) of the same compound?
Its IC50 is 1000 nM.

And the IC50 ([3]; Homo sapiens)?
The IC50 was 4 nM.

For `CN1CC[C@@](O)(C#Cc2cccc(-c3ncc(NC4COC4)c(C(N)=O)n3)c2)C1=O` [Example 88, 2-[3-[2-[(3R)-3-hydroxy-1-methyl-2-oxo-pyrrolidin-3-yl]ethynyl]phenyl]-5-(oxetan-3-ylamino) pyrimidine-4-carboxamide], which Ki [1] is on record?
The Ki was 0.05 nM.

And the IC50 ([2]; Homo sapiens, HeLa)?
Its IC50 is ≥ 20000 nM.

And the IC50 ([3]; Homo sapiens)?
Its IC50 is 2.12 nM.

With `COCCNc1cnc(-c2cccc(C#C[C@]3(O)CCN(C)C3=O)c2)nc1C(N)=O` [Example 89, 2-[3-[2-[(3R)-3-hydroxy-1-methyl-2-oxo-pyrrolidin-3-yl]ethynyl]phenyl]-5-(2-methoxyethylamino) pyrimidine-4-carboxamide] as the compound, how does the Ki [1] read?
Its Ki is 0.05 nM.

And the IC50 ([2]; Homo sapiens, HeLa)?
The IC50 was 1000 nM.

And the IC50 ([3]; Homo sapiens)?
The IC50 was 32.4 nM.

For `CN1CC[C@@](O)(C#Cc2ccc(F)c(-c3cccc(C(N)=O)n3)c2)C1=O` [Example 92, 6-[2-fluoro-5-[2-[(3R)-3-hydroxy-1-methyl-2-oxo-pyrrolidin-3-yl]ethynyl]phenyl]pyridine-2-carboxamide], which Ki [1] is on record?
Its Ki is 0.39 nM.

And the IC50 ([2]; Homo sapiens, HeLa)?
Its IC50 is ≥ 20000 nM.

And the IC50 ([3]; Homo sapiens)?
The IC50 was 133 nM.

For `COc1ccc2nc(-c3cccc(C#C[C@]4(O)CCN(C)C4=O)c3)nc(C(N)=O)c2c1` [Example 93, 2-[3-[2-[(3R)-3-hydroxy-1-methyl-2-oxo-pyrrolidin-3-yl]ethynyl]phenyl]-6-methoxy-quinazoline-4-carboxamide], which Ki [1] is on record?
Its Ki is 0.15 nM.

What about the IC50 ([2]; Homo sapiens, HeLa) of the same compound?
The IC50 was 6320 nM.

What about the IC50 ([3]; Homo sapiens) of the same compound?
The IC50 was 21 nM.

`Cc1cc(C#C[C@]2(O)CCN(C)C2=O)cc(-c2nccc(C(N)=O)n2)c1` [Example 94, 2-[3-[2-[(3R)-3-hydroxy-1-methyl-2-oxo-pyrrolidin-3-yl]ethynyl]-5-methyl-phenyl]pyrimidine-4-carboxamide] was tested. Which Ki [1] did it give?
Its Ki is 1.41 nM.

What about the IC50 ([2]; Homo sapiens, HeLa) of the same compound?
The IC50 was ≥ 20000 nM.

What about the IC50 ([3]; Homo sapiens) of the same compound?
Its IC50 is 175 nM.

How did the Ki [1] turn out when `Cc1ccc(-c2cc(C(N)=O)nc(-c3cccc(C#C[C@]4(O)CCN(C)C4=O)c3)n2)cn1` [Example 95, 2-[3-[2-[(3R)-3-hydroxy-1-methyl-2-oxo-pyrrolidin-3-yl]ethynyl]phenyl]-6-(6-methyl-3-pyridyl)pyrimidine-4-carboxamide] was run?
Its Ki is 0.49 nM.

What about the IC50 ([2]; Homo sapiens, HeLa) of the same compound?
Its IC50 is ≥ 20000 nM.

What about the IC50 ([3]; Homo sapiens) of the same compound?
Its IC50 is 55.2 nM.

Which Ki [1] does the source give for `CN1CC[C@@](O)(C#Cc2cccc(-c3nc(C(N)=O)cc(-c4cnccn4)n3)c2)C1=O` [Example 96, 2-[3-[2-[(3R)-3-hydroxy-1-methyl-2-oxo-pyrrolidin-3-yl]ethynyl]phenyl]-6-pyrazin-2-yl-pyrimidine-4-carboxamide] here?
The Ki was 0.45 nM.

What about the IC50 ([2]; Homo sapiens, HeLa) of the same compound?
Its IC50 is ≥ 20000 nM.

What about the IC50 ([3]; Homo sapiens) of the same compound?
Its IC50 is 34.7 nM.

Which results are given for `CN1CC[C@@](O)(C#Cc2cccc(-c3nc(C(N)=O)cc(-c4cc(F)cc(F)c4)n3)c2)C1=O` [Example 97, 6-(3,5-difluorophenyl)-2-[3-[2-[(3R)-3-hydroxy-1-methyl-2-oxo-pyrrolidin-3-yl]ethynyl]phenyl]pyrimidine-4-carboxamide]?
Ki [1]: 0.37 nM; IC50 ([2]; Homo sapiens, HeLa): ≥ 20000 nM; IC50 ([3]; Homo sapiens): 57.5 nM

How did the Ki [1] turn out when `CN1CC[C@@](O)(C#Cc2cccc(-c3nc(C(N)=O)cc(-c4cc(F)ccc4F)n3)c2)C1=O` [Example 98, 6-(2,5-difluorophenyl)-2-[3-[2-[(3R)-3-hydroxy-1-methyl-2-oxo-pyrrolidin-3-yl]ethynyl]phenyl]pyrimidine-4-carboxamide] was run?
The Ki was 0.23 nM.

What about the IC50 ([2]; Homo sapiens, HeLa) of the same compound?
The IC50 was ≥ 20000 nM.

And the IC50 ([3]; Homo sapiens)?
The IC50 was 82 nM.

With `CN1CC[C@@](O)(C#Cc2cccc(-c3nc(OC4COC4)cc(C(N)=O)n3)c2)C1=O` [Example 99, 2-[3-[2-[(3R)-3-hydroxy-1-methyl-2-oxo-pyrrolidin-3-yl]ethynyl]phenyl]-6-(oxetan-3-yloxy) pyrimidine-4-carboxamide] as the compound, how does the Ki [1] read?
The Ki was 0.48 nM.

And the IC50 ([2]; Homo sapiens, HeLa)?
The IC50 was ≥ 20000 nM.

What about the IC50 ([3]; Homo sapiens) of the same compound?
The IC50 was 104 nM.

What does the source list for `CN1CC[C@@](O)(C#Cc2cccc(-c3ncc(NCC4COC4)c(C(N)=O)n3)c2)C1=O` [Example 100, 2-[3-[2-[(3R)-3-hydroxy-1-methyl-2-oxo-pyrrolidin-3-yl]ethynyl]phenyl]-5-(oxetan-3-ylmethylamino) pyrimidine-4-carboxamide]?
Ki [1]: 0.1 nM; IC50 ([2]; Homo sapiens, HeLa): ≥ 20000 nM; IC50 ([3]; Homo sapiens): 11.6 nM

Which results are given for `COC(C)(C)CNc1cnc(-c2cccc(C#C[C@]3(O)CCN(C)C3=O)c2)nc1C(N)=O` [Example 101, 2-[3-[2-[(3R)-3-hydroxy-1-methyl-2-oxo-pyrrolidin-3-yl]ethynyl]phenyl]-5-[(2-methoxy-2-methyl-propyl)amino]pyrimidine-4-carboxamide]?
Ki [1]: 0.52 nM; IC50 ([2]; Homo sapiens, HeLa): ≥ 20000 nM; IC50 ([3]; Homo sapiens): 92.6 nM

How did the Ki [1] turn out when `CN1CC[C@@](O)(C#Cc2cccc(-c3ncc(NCCN4CCOCC4)c(C(N)=O)n3)c2)C1=O` [Example 102, 2-[3-[2-[(3R)-3-hydroxy-1-methyl-2-oxo-pyrrolidin-3-yl]ethynyl]phenyl]-5-(2-morpholinoethylamino) pyrimidine-4-carboxamide] was run?
The Ki was 0.21 nM.

And the IC50 ([2]; Homo sapiens, HeLa)?
Its IC50 is ≥ 20000 nM.

What about the IC50 ([3]; Homo sapiens) of the same compound?
Its IC50 is 66.9 nM.

How did the Ki ([1]; purified NIK 0.5 nM, 10 μM ATP, pH 7.2, Ki from Morrison's quadratic equation) turn out when `Cc1cnn(-c2cc(C(N)=O)nc(-c3cccc(C#C[C@]4(O)CCN(C)C4=O)c3)n2)c1` [Example 104, 2-[3-[2-[(3R)-3-hydroxy-1-methyl-2-oxo-pyrrolidin-3-yl]ethynyl]phenyl]-6-(4-methylpyrazol-1-yl) pyrimidine-4-carboxamide] was run?
The Ki was 0.4 nM.

And the IC50 [2]?
The IC50 was ≥ 20000 nM.

And the IC50 [3]?
Its IC50 is 69.2 nM.
